Here are results for 22 compounds from patent publication US6784167B2, “17-beta-hydroxysteroid dehydrogenase-II inhibitors” (Bayer Pharmaceuticals Corporation, priority 2000, dated 2004).

One series has as its target T1, 17-Beta HSD II Enzyme (Homo sapiens, UniProt P37059).
T1 construct: made in house; host or cells: insect cells (baculovirus)
T1 sequence (P37059 1-387): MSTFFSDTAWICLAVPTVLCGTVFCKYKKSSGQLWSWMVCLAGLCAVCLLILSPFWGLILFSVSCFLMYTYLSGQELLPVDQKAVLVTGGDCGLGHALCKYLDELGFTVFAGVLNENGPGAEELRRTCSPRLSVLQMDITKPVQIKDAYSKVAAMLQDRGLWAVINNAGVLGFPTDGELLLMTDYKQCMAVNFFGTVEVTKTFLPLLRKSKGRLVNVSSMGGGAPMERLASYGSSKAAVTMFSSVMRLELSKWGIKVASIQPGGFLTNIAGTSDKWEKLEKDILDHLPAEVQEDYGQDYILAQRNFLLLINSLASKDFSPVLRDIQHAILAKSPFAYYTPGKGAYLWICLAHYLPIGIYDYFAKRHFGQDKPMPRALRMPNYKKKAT
Description: Primary assay: inhibition of 17-Beta HSD II enzyme (estradiol/NAD, PMS:MTS colorimetric readout at 490 nm). The conditions noted are these: Table 7, baculovirus-expressed recombinant HSD II, estradiol substrate. The series is classed as biochemical. How it is done:
HSD II protein purification: The method for purification of baculovirus-expressed HSD II was standardized as follows. The insect cell pellet containing recombinant HSD II was lysed in 2.5 volumes of lysis buffer (40 mM Tris, pH 7.5, 1 mM EDTA, 2 mM DTT, 10 uM NAD) containing 500 uM AEBSF, 10 ug/ml aprotinin, 1 uM pepstatin A, and 100 uM leupeptin. The pellet was nutated for 30 min in this buffer. Subsequently, the pellet was homogenized with 15 strokes using a glass and teflon potter. The volume was doubled with a 2× sucrose/NaCl solution (500 mM sucrose, 300 mM NaCl in lysis buffer). After centrifugation at 10,000×g for 30 min, the supernatant was decanted and stored at −20° C. The pellet was resuspended in 2.5 volumes of lysis buffer containing 250 mM sucrose and 150 mM NaCl. Homogenization was repeated (15 strokes) and the suspension was centrifuged again and the decanted supernatant was stored at −20° C. The pellet was resuspended with 2 times the original pellet volume in lysis buffer containing 150 mM NaCl and 1% Triton X-100. The suspension was nutated for 20 min and then homogenized with 5 strokes. Subsequently, the suspension was centrifuged at 30,000×g for 1 h and supernatant was decanted and poured into a chromatographic column. Sephadex G-25 (fine) was added in small amounts, allowing approximately 15 min after each addition for complete swelling. Sephadex addition was continued until all liquid was absorbed. The protein was eluted with 1 void volume of lysis buffer and eluate monitored at 280 nm optical density. The chromatographic procedure was repeated and an equal volume of glycerol was added to the final eluate.
Primary assay: After titration, the HSD II prep, generated with the standard protocol, was diluted to the appropriate concentration (generally 1/15 dilution). 55 μl of assay buffer (50 mM Hepes, pH 8.0) was added to all wells of a 96 well plate. 5 μl of 5% DMSO were added to wells A1-C1, A2-C2, F1-H1, and F2-H2. A 10 μl aliquot of a 10 mM solution in DMSO of each compound was diluted in 190 μl of assay buffer. The plate with these compound dilutions was then mixed for 15 min on a shaker and a 5 μl aliquot from each well was added to the […]. This was followed by 10 μl of HSD II enzyme ( 1/15 dilution)/estradiol mix in assay buffer containing 1% Triton X-100. The estradiol […] from a 20 mM estradiol DMSO stock solution, which was diluted 1/20 (50 μl/ml) in 50 mM Hepes buffer containing 1% Triton X-100. All wells, except F1-H1 and F2-H2, also received 10 μl of 25 mg/ml NAD (SIGMA) in 100 mM Hepes, pH 9. The blank wells F1-H1 and F2-H2 received 10 μl of NAD buffer. 20 μl of PMS:MTS solution (100 μl PMS into 1800 μl MTS, Promega) was added to all wells. The plate was covered with aluminum foil and incubated at room temperature for 1.5 h. The plate was analyzed at 490 nm on a Hewlett Pachard 8453 spectrophotometer and results were calculated.

Where [1] appears, read: read-out: IC50 values ≧2 μM and <10 μM.

pIC50: −log10 of the molar value. Where two headings read alike, the source gives them in different places.

By melting point is commonly meant the temperature of the solid-liquid transition. The term pIC50 denotes the IC50 on a negative log10 scale, so that one unit is a factor of ten. Compound `CN1C(=O)C[C@H](c2cccc(F)c2)[C@@H]1[C@H](O)c1ccc(-c2ccc(F)cc2)s1` (racemic) [Example 85] came in with a melting point of 195 °C. In addition, the pIC50 on 17-Beta HSD II Enzyme was above 6.30.
As to `Cc1ccc(-c2ccc([C@@H](O)[C@H]3[C@@H](c4ccccc4)CC(=O)N3C)s2)c(F)c1` (racemic) [Example 72], the melting point was 182 °C. Moreover, the pIC50 at 17-Beta HSD II Enzyme was above 6.30.
`CN1C(=O)CC(c2ccccc2F)C1C(O)c1ccc(-c2ccc(F)cc2)s1` (centres unmarked) [Example 84] came in with a melting point of 178 °C. In addition, the pIC50 at 17-Beta HSD II Enzyme was above 6.30.
Turning to `Cc1cc(-c2ccccc2)c([C@@H](O)[C@H]2[C@@H](c3ccccc3)CC(=O)N2C)s1` (racemic) [Example 43], the melting point came to 85 °C. Also, the pIC50 on 17-Beta HSD II Enzyme was above 6.30.
Taken in the same sequence, the figures for `CN1C(=O)CC(c2ccccc2)C1C(O)C#Cc1cccc(N)c1` (racemic) [Example 133] were 205 to 207 °C and above 6.30.
`CN1C(=O)CC(c2ccccc2)C1C(O)c1ccc(S(=O)(=O)N2CCN(c3ccc(F)cc3)CC2)s1` (racemic) [Example 37] had a melting point of 167 to 175 °C. Besides, at 17-Beta HSD II Enzyme, the pIC50 was above 6.30.
With `CO[C@H](c1cccs1)[C@H]1[C@@H](c2ccccc2)CC(=O)N1C` (relative stereo) [Example 12, (±)-(4R*,5R*)-5-((1S*)-methoxy-2-thienylmethyl)-1-methyl-4-phenylpyrrolidin-2-one], the melting point was 101 to 102 °C. Also, at 17-Beta HSD II Enzyme (setting [1]), the pIC50 is 5.00 to 5.70.
Taken in the same sequence, the figures for `CN1C(=O)CC(c2ccccc2)C1C(O)c1ccc(-c2ccc(C(F)(F)F)cc2)s1` (centres unmarked) [Example 32] were 206 °C and 5.00 to 5.70.
Taken in the same sequence, the figures for `CN1C(=O)C[C@H](c2ccccc2)[C@@H]1[C@H](O)C#CCN1CCS(=O)(=O)CC1` (racemic) [Example 130] were 217 to 218 °C and 5.00 to 5.70.
Consider `CN1C(=O)C[C@H](c2ccccc2)[C@@H]1[C@H](O)c1ccc(-c2ccccc2F)s1` (racemic) [Example 71], for which the melting point turned out to be 216 °C. Further, on 17-Beta HSD II Enzyme, the pIC50 is above 6.30.
Consider `CCO[C@H](c1cccs1)[C@H]1[C@@H](c2ccccc2)CC(=O)N1C` [Example 139], for which the melting point fell in the range of 142 to 144 °C. Further, the pIC50 on 17-Beta HSD II Enzyme (setting [1]) was 5.00 to 5.70.
Taken in the same sequence, the figures for `CN1C(=O)C[C@H](c2ccccc2)[C@@H]1[C@H](O)Cc1cccc(Cl)c1` (relative stereo) [Example 9, (±)-(4R*,5R*)-5-[(1R*)-2-(3-chlorophenyl)-1-hydroxyethyl]-1-methyl-4-phenylpyrrolidin-2-one] were 50 to 52 °C and 5.00 to 5.70.
For `CN1C(=O)C[C@H](c2ccccc2)[C@@H]1[C@H](O)c1ccc(-c2cccc(NS(C)(=O)=O)c2)s1` (racemic) [Example 73], the melting point was found to be 199 °C. Also, the pIC50 on 17-Beta HSD II Enzyme was above 6.30.
In the same order, the values of `Cc1sc([C@@H](O)[C@H]2[C@@H](c3ccccc3)CC(=O)N2C)cc1-c1ccccc1` (racemic) [Example 38] are 78 to 82 °C and above 6.30.
On to `CN1C(=O)C[C@H](c2ccccc2F)[C@@H]1[C@H](O)c1ccc(S(=O)(=O)c2ccccc2)s1` (racemic) [Example 89], for which the melting point stood at 232 °C. Also, the pIC50 at 17-Beta HSD II Enzyme was above 6.30.
In the same order, the values of `CN1C(=O)CC(c2ccccc2)C1C(O)c1ccc(-c2ccc(O)cc2)s1` (centres unmarked) [Example 52] are 184 to 186 °C (dec.) and above 6.30.
Taken in the same sequence, the figures for `Cc1c(C(O)C2C(c3ccccc3)CC(=O)N2C)sc2ccc(F)cc12` (racemic) [Example 53] were 175 to 177 °C and above 6.30.
In the case of `CC(=O)Nc1cccc(-c2ccc([C@@H](O)[C@H]3[C@@H](c4ccccc4)CC(=O)N3C)o2)c1` (racemic) [Example 121], the melting point was determined as 193 °C. The pIC50 on 17-Beta HSD II Enzyme (setting [1]) was 5.00 to 5.70.
`CN1C(=O)CC(c2ccccc2)C1C(O)c1ccc(Cl)c(Cl)c1` (centres unmarked) [Example 99] returned a melting point of 193 to 195 °C. Besides, at 17-Beta HSD II Enzyme, the negative logarithm of the IC50 (pIC50) is above 6.30.
`CO[C@H](c1cccc(Cl)c1)[C@H]1[C@@H](c2ccccc2)CC(=O)N1C` [Example 142] gave a melting point of 95 to 96 °C. At 17-Beta HSD II Enzyme (setting [1]), the pIC50 is 5.00 to 5.70.
Taken in the same sequence, the figures for `Cc1ccc(-c2ccc(C(O)C3C(c4ccccc4)CC(=O)N3C)o2)cc1` (centres unmarked) [Example 115] were 187 °C and 5.00 to 5.70.
In the same order, the values of `CN1C(=O)C[C@H](c2ccccc2)[C@@H]1[C@H](OCCCc1ccccc1)c1cccs1` [Example 141] are 76 to 78 °C and 5.00 to 5.70.
